# Patent US20070179060A1, “6-(Poly-substituted aryl)-4-aminopicolinates and their use as herbicides” (priority 2006, published 2007)
# Legend:
# Cyperus difformis = experiment: Herbicidal activity in transplanted paddy rice; type: in vivo; conditions: Cyperus difformis, 504 h, paddy water application, after 3 weeks, read-out: % Control CYPDI; for pest or weed control at 17.5 g/ha: 17.5 g ai/ha; for pest or weed control at 70 g/ha: 70 g ai/ha
# In short: (§1)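 Rice seedlings transplanted at second to third leaf stage and weeds from seed were grown in flooded mud pots in a greenhouse (~29/26 °C, 14 h photoperiod). At second or third true leaf stage, acetone stock solutions were injected into the paddy water at the high rate and ½× to 1/16× dilutions. Solvent-blank controls.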
# Echinochloa crus-galli = experiment: Herbicidal activity in transplanted paddy rice; type: in vivo; conditions: Echinochloa crus-galli, 504 h, paddy water application, after 3 weeks, read-out: % Control ECHCG; for pest or weed control at 17.5 g/ha: 17.5 g ai/ha; for pest or weed control at 70 g/ha: 70 g ai/ha
# In short: as §1
# Monochoria vaginalis = experiment: Herbicidal activity in transplanted paddy rice; type: in vivo; conditions: Pontederia vaginalis, 504 h, paddy water application, after 3 weeks, read-out: % Control MOOVA; for pest or weed control at 17.5 g/ha: 17.5 g ai/ha; for pest or weed control at 70 g/ha: 70 g ai/ha
# In short: as §1
# Scirpus juncoides = experiment: Herbicidal activity in transplanted paddy rice; type: in vivo; conditions: Schoenoplectiella juncoides, 504 h, paddy water application, after 3 weeks, read-out: % Control SCPJU; for pest or weed control at 17.5 g/ha: 17.5 g ai/ha; for pest or weed control at 70 g/ha: 70 g ai/ha
# In short: as §1
# [1] = system: rice (Orysa sativa var. Japonica); experiment: Herbicidal activity in transplanted paddy rice; type: in vivo; conditions: Oryza sativa, 504 h, transplant rice (crop), paddy water application, after 3 weeks; for pest or weed control at 17.5 g/ha: 17.5 g ai/ha; for pest or weed control at 70 g/ha: 70 g ai/ha
# In short: as §1
# [2] = system: Hordeum vulgare (winter barley); experiment: Postemergence herbicidal activity of mixtures in cereal crops; type: in vivo; conditions: after 3 weeks
# Protocol: (§2) Seeds of the desired test plant species were planted and reared as described in “Evaluation of Postemergence Herbicidal Safening in Cereal Crops” (section 37).
# (§3) Treatments consisted of compound (as listed in Tables 6 and 7), fluroxypyr methylheptyl ester (MHE), and clopyralid monoethanolamine (MEA) salt alone and in combination. Weighed amounts were placed in 25 mL glass vials and dissolved in a volume of 97:3 v/v acetone/DMSO to obtain 4.5 mg ai/mL stock solutions. […] The concentrated stock solutions were diluted to 1.5 mg ai/mL with the addition of 2 volumes of an aqueous mixture containing acetone, water, isopropyl alcohol, DMSO, Agri-dex crop oil concentrate, and Triton® X-77 surfactant in a 64.7:26.0:6.7:2.0:0.7:0.01 v/v ratio. A dilution solution was prepared by mixing 1 volume of 97:3 v/v acetone/DMSO and 2 volumes of an aqueous mixture containing acetone, water, isopropyl alcohol, DMSO, Agri-dex crop oil concentrate, and Triton® X-77 surfactant in a 64.7:26.0:6.7:2.0:0.7:0.01 v/v ratio. Compound requirements are based upon a 12 mL application volume at a rate of 187 L/ha. Spray solutions of fluroxypyr MHE, clopyralid MEA, and experimental compound mixtures were prepared by adding the stock solutions to the appropriate amount of dilution solution to form 12 mL spray solution with active ingredients in two- and three-way combinations. Formulated compounds were applied to the plant material with an overhead Mandel track sprayer equipped with a 8002E nozzles calibrated to deliver 187 L/ha over an application area of 0.503 square meters at a spray height of 18 inches (43 cm) above average plant canope. Control plants were sprayed in the same manner with the solvent blank.
# (§4) The treated plants and control plants were placed in a greenhouse as described above and watered by sub-irrigation to prevent wash-off of the test compounds. After 3 weeks the condition of the test plants as compared with that of the control plants was determined visually and scored on a scale of 0 to 100 percent where 0 corresponds to no injury and 100 corresponds to complete kill.
# (§5) Colby's equation was used to determine the herbicidal effects expected from the mixtures (Colby, S. R. 1967. Calculation of the synergistic and antagonistic response of herbicide combinations. Weeds 15:20-22.).
# (§6) The following equation was used to calculate the expected activity of mixtures containing two active ingredients, A and B: Expected=A+B−(A×B/100) • A=observed efficacy of active ingredient A at the same concentration as used in the mixture. • B=observed efficacy of active ingredient B at the same concentration as used in the mixture.
# (§7) The following equation was used to calculate the expected activity of mixtures containing three active ingredients, A, B, and C: Expected=A+B+C−(A×B+B×C+A×C)/100+(A×B×C)/10000 • A=observed efficacy of active ingredient A at the same concentration as used in the mixture. • B=observed efficacy of active ingredient B at the same concentration as used in the mixture. • C=observed efficacy of active ingredient C at the same concentration as used in the mixture.
# Matricaria chamomilla = experiment: as above; type: in vivo; conditions: after 3 weeks
# Protocol: as §2, §3, §4, §5, §6, §7
# [3] = system: Triticum aestivum (spring wheat); experiment: as above; type: in vivo; conditions: after 3 weeks
# Protocol: as §2, §3, §4, §5, §6, §7
# [4] = Table 7, applied alone, 35 g ai/ha
# [5] = Table 7, applied alone, 70 g ai/ha
# [6] = Table 6, applied alone, 35 g ai/ha
melting point,Structure (SMILES),pest or weed control at 17.5 g/ha (Cyperus difformis),pest or weed control at 17.5 g/ha (Echinochloa crus-galli),pest or weed control at 17.5 g/ha (Monochoria vaginalis),pest or weed control at 17.5 g/ha (Scirpus juncoides),pest or weed control at 17.5 g/ha [1],pest or weed control at 70 g/ha (Cyperus difformis),pest or weed control at 70 g/ha (Echinochloa crus-galli),pest or weed control at 70 g/ha (Monochoria vaginalis),pest or weed control at 70 g/ha (Scirpus juncoides),pest or weed control at 70 g/ha [1],other results
164 to 165 °C,"COC(=O)c1nc(-c2ccc(Br)c(OC)c2F)cc(N)c1Cl [Compound 27, 4-amino-6-(4-bromo-2-fluoro-3-methoxyphenyl)-3-chloro-pyridine-2-carboxylic acid methyl ester]",100%,45%,100%,99%,0%,,,,,,
,"COC(=O)c1nc(-c2ccc(Cl)c(OC)c2F)cc(N)c1Cl [Compound 42, 4-Amino-3-chloro-6-(4-chloro-2-fluoro-3-methoxyphenyl)pyridine-2-carboxylic acid methyl ester]",100%,40%,100%,90%,5%,,,,,,"% Control HORVW Ob [2, 4]: 25%; % Control HORVW Ob [2, 5]: 30%; % Control MATCH Ob (Matricaria chamomilla; [4]): 50%; % Control MATCH Ob (Matricaria chamomilla; [5]): 60%; % Control TRZAS Ob [3, 4]: 30%; % Control TRZAS Ob [3, 5]: 45%"
168 to 170 °C,"COC(=O)c1nc(-c2ccc(Cl)c(OC)c2Cl)cc(N)c1Cl [Compound 44, 4-Amino-3-chloro-6-(2,4-dichloro-3-methoxyphenyl)pyridine-2-carboxylic acid methyl ester]",,,,,,100%,50%,90%,95%,0%,
,"COC(=O)c1nc(-c2c(F)cc(Cl)c(OC)c2F)cc(N)c1Cl [Compound 58, 4-Amino-3-chloro-6-(4-chloro-2,6-difluoro-3-methoxyphenyl)pyridine-2-carboxylic acid, methyl ester]",100%,30%,100%,50%,0%,,,,,,"% Control HORVW Ob [2, 6]: 15%; % Control MATCH Ob (Matricaria chamomilla; [6]): 0%; % Control TRZAS Ob [3, 6]: 35%"
,"COC(=O)c1nc(-c2ccc(F)c(OC)c2F)cc(N)c1Cl [Compound 70, 4-Amino-3-chloro-6-(2,4-difluoro-3-methoxyphenyl)pyridine-2-carboxylic acid, methyl ester]",,,,,,95%,45%,100%,95%,0%,
,"COC(=O)c1nc(-c2c(F)cc(Br)c(OC)c2F)cc(N)c1Cl [Compound 77, 4-Amino-6-(4-bromo-2,6-difluoro-3-methoxyphenyl)-3-chloropyridine-2-carboxylic acid, methyl ester]",,,,,,,,,,,pest or weed control at 35 g/ha (Cyperus difformis; 35 g ai/ha): 100%; pest or weed control at 35 g/ha (Echinochloa crus-galli; 35 g ai/ha): 70%; pest or weed control at 35 g/ha (Monochoria vaginalis; 35 g ai/ha): 100%; pest or weed control at 35 g/ha (Scirpus juncoides; 35 g ai/ha): 99%; pest or weed control at 35 g/ha ([1]; 35 g ai/ha): 0%
,"COc1c(Cl)ccc(-c2cc(N)c(Cl)c(C(=O)O)n2)c1F [Compound 100, 4-Amino-3-chloro-6-(4-chloro-2-fluoro-3-methoxyphenyl)pyridine-2-carboxylic acid]",100%,30%,100%,80%,10%,,,,,,
179 to 180 °C (dec.),"COc1c(Cl)ccc(-c2cc(N)c(Cl)c(C(=O)O)n2)c1Cl [Compound 103, 4-Amino-3-chloro-6-(2,4-dichloro-3-methoxyphenyl)pyridine-2-carboxylic acid]",,,,,,100%,40%,100%,95%,10%,
